Test results as given in ChEMBL document CHEMBL5604062, “ASAP - ZIKV NS2B-NS3 protease fluorescence dose response” (2024).
Several values for one entry are separate records, joined by “and”; a condition that tells them apart may be missing. Equal values may be shown once.

Molecular target: Nonstructural protein 3 (Zika virus, UniProt A0A024AXB9)
Test: Functional biochemical assay to identify treatments for viral infectious disease that targets Zika NS2B-NS3 protease. Utilizing a direct enzyme activity measurement method, reading the fluorescence intensity is used to characterize the relative potency of inhibitors as IC50.
Set-up: species or system PRVABC59

Chain of Nonstructural protein 3 (A0A024AXB9 whole entry): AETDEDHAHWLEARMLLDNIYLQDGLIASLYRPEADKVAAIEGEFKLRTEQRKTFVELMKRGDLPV

Structure (SMILES) | IC50
CCCCS(=O)(=O)N1CCC([C@H](NC(=O)OCc2ccccc2)C(=O)Nc2cccc(CN)c2)CC1 | > 99.5 µM
O=c1oc2cccnc2n1CC=Cc1ccccc1 | > 99.5 µM
O=C(O)c1ccn(C2CCN(Cc3c[nH]c4ccccc34)CC2)n1 | > 99.5 µM
Cn1nc2c(c1NC(=O)c1cc(Cl)cc(NC(=O)OCc3ccccc3)c1)CCNC2 | > 99.5 µM
CCN(C)S(=O)(=O)N1CCC([C@H](NC(=O)OCc2ccccc2)C(=O)Nc2cccc(CN)c2)CC1 | > 99.5 µM
NCCc1ccc(NC(=O)c2cc(Cl)cc(CN)c2)cc1 | 8.04 µM
CCn1c(=O)c(N2CCC[C@H]2C(=O)NC2CC2)nc2ccccc21 | > 99.5 µM
CNC(=O)CN1CCC([C@@H](NC(=O)OCc2ccccc2)C(=O)Nc2cccc(CN)c2)CC1 | > 99.5 µM
Cc1nnc(SC[C@H]2CCCN2C(=O)Nc2ccc3c(c2)CNC3)s1 | 5.77 µM
O=C(Nc1ccc2c(c1)CNC2)c1cc(F)cc(C2=CCOCC2)c1 | 0.362 µM
N#Cc1ccc(Cl)c(C(=O)Nc2ccc3c(c2)CNC3)c1 | 1.99 µM
CN(C)C[C@@]1(O)CCN(C(=O)c2cc(C=O)c[nH]2)C1 | > 99.5 µM
CS(=O)(=O)N1CC[C@]2(C1)C(=O)Nc1cccc(C(=O)Nc3ccc4c(c3)CNC4)c12 | 0.369 µM
NCc1cccc([C@@H]2C[C@H]2c2cc(Cl)cc(NC(=O)OCc3ccccc3)c2)c1 | 18.1 µM and 11.3 µM
CNC(=O)[C@H](Nc1cc(Cl)cc(C2CC2)c1)c1ccc(-c2nn[nH]n2)cc1 | > 99.5 µM
O=C(Nc1nc(O)c2c(n1)CNC2)c1cc(Cl)cc2[nH]ncc12 | 8.43 µM
O=C(Nc1ccc2c(c1)CNC2)c1cncc2[nH]ncc12 | 0.443 µM
CCOc1cc(N2CCN(C)CC2)ccc1NS(=O)(=O)c1ccc(Cl)cc1C(=O)O | > 99.5 µM
O=C(Nc1ccc2c(c1)CNC2)c1cc(Cl)cc2[nH]c(-c3ccc(F)cc3O)nc12 | 0.087 µM and 0.058 µM
c1ccc(N2CCN(Cc3c[nH]c4ccccc34)CC2)nc1 | > 99.5 µM
Cc1cccc(N2CCC(NS(=O)(=O)c3ccc(Cl)cc3C(=O)O)CC2)n1 | > 99.5 µM
Brc1csc(CNCCc2nnc[nH]2)c1 | > 99.5 µM
O=C(Nc1cc(Cl)cc([C@H](Nc2cccc(-c3nn[nH]n3)c2)C(=O)NCc2ccccc2)c1)OCc1ccccc1 | 12.8 µM
O=C(O)c1cc(Cl)ccc1S(=O)(=O)Nc1ccc(CN2CCCCC2)cc1 | > 99.5 µM
Cc1[nH]c(-c2ccccc2)cc1C(=O)Nc1cc(-c2cccnc2)ccn1 | > 25 µM
NCc1cccc([C@H](CCCO)Nc2cc(Cl)cc(NC(=O)OCc3ccccc3)c2)c1 | 27.4 µM

Structure (SMILES) | IC50
COc1cc(Cc2ccc3[nH]ncc3c2)nc(N2CCNCC2)n1 | > 99.5 µM
N[C@]12CCC[C@](C(=O)NCc3ccc4c(c3)CCNCC4)(CC1)C2 | > 99.5 µM
O=C(O)Cc1cccc(NC(=O)c2cc(Cl)cc(NC(=O)OCc3ccccc3)c2)c1 | > 99.5 µM
O=C1OCc2ccc(NC(=O)c3cc(F)cc4[nH]ncc34)cc21 | > 25 µM
CC(=O)N1CCN([C@H]2CC[C@H](NS(=O)(=O)c3ccc(Cl)cc3C(=O)O)CC2)CC1 | > 99.5 µM
NCc1cccc(NC(=O)CN2CCN(C(=O)OCc3ccccc3)CC2)c1 | > 99.5 µM
NC[C@H]1C[C@](F)(CNC(=O)c2cc(Cl)cc(NC(=O)OCc3ccccc3)c2)C1 | 67 µM
O=C1Nc2ccccc2[C@H]1N1CCC(c2nc3ccccc3s2)CC1 | > 99.5 µM
CCn1cc(-c2cnccc2C)nc(N2CC[C@@H](CO)C2)c1=O | > 99.5 µM
COc1cc(C(=O)Nc2cccc(CN)c2)cc(NC(=O)OCc2ccccc2)c1Cl | 38.1 µM
O=C(Nc1cc([C@H]2CCOC2)ccn1)c1ccc2ncsc2c1 | > 25 µM
O=C(O)c1nccn2ncc(Cc3c[nH]c4ccc(Cl)cc34)c12 | > 99.5 µM
NCc1cccc(NC(=O)[C@@H](NC(=O)OCc2ccccc2)c2ccc(Cl)cc2)c1 | > 99.5 µM
O=C1Nc2ncccc2C[C@H]1NCc1n[nH]c2ccccc12 | > 99.5 µM
CCOCCCN1Cc2ccc(NC(=O)c3cc(Cl)cc4[nH]ncc34)cc2C1 | 33.1 µM
O=C(Nc1ccc2c(c1)CNC2)N1CCC[C@H]1Cc1cc2ccccc2o1 | > 25 µM
O=C1NCc2c1cccc2C(=O)Nc1ccc2c(c1)CNC2 | 6.43 µM
COCc1cc(Cl)cc([C@H](Nc2ccc3c(c2)CNC3)C(=O)NCC(F)F)c1 | 0.027 µM and 0.014 µM
Cn1ncc(C(=O)Nc2cc(-c3cccnc3)ccn2)c1C1CC1 | 20.8 µM
O=C(O)c1cc(Cl)ccc1NS(=O)(=O)c1ccc(-c2cccnc2)cc1 | > 99.5 µM
CO[C@H]1C[C@H](n2ncc3c(C(=O)Nc4ccc5c(c4)CNC5)cc(Cl)cc32)C1 | 0.054 µM and 0.042 µM
CCn1c(=O)c(N2CC[C@H](N3CCCS3(=O)=O)C2)nc2ccccc21 | > 99.5 µM
CCn1c(=O)c(N2CC[C@@H](Cc3ccncc3)C2)nc2ccccc21 | > 99.5 µM
CCc1ccc(-c2ccc([C@@H](NC(=O)OCc3ccccc3)C(=O)Nc3cccc(CN)c3)cc2)cc1 | 5.8 µM
O=C(O)c1cc(Cl)ccc1NS(=O)(=O)c1ccc(Oc2ccccc2Cl)cc1 | 35.1 µM
Clc1ccc2[nH]cc(Cc3ccc4c(c3)CNC4)c2c1 | > 99.5 µM

Structure (SMILES) | IC50
O=C(c1cc(Cl)cc2[nH]ncc12)N1CCC[C@H]1C1CCNCC1 | > 99.5 µM
NCc1cccc(NC(=O)[C@H]2C[C@@H](C(F)(F)F)C[C@@H](C(F)(F)F)C2)c1 | > 99.5 µM
CC(C)(C)c1ccc(Cl)cc1C(=O)Nc1ccc2c(c1)CNC2 | 2.46 µM
CNC(=O)c1cc(Cl)c(F)cc1NS(=O)(=O)c1ccc(Oc2ccccc2Cl)cc1 | 37.9 µM
O=C(Nc1cc(-c2cccnc2)ccn1)c1cn2c(n1)CCC2 | > 25 µM
Cc1cnn(-c2cc(C(=O)O)c(NS(=O)(=O)c3ccc(Oc4ccccc4Cl)cc3)cc2F)c1 | 10.6 µM
CC(C)c1nc2c(C(=O)Nc3cccc(-c4nnn[nH]4)c3)cccc2[nH]1 | > 99.5 µM
CCN1CC[C@H](COc2cccc([C@H](NC(=O)OCc3ccccc3)C(=O)Nc3cccc(CN)c3)c2)C1 | > 99.5 µM
Cn1ncc2c(C(=O)Nc3ccc4c(c3)CNC4)cc(-c3cccnc3)nc21 | > 25 µM
Cc1c(C(=O)Nc2cc(CCCN)ccn2)cc(C#N)n1C | > 25 µM
CCS(=O)(=O)c1ccc(Cl)cc1[C@H](Nc1ccc2c(c1)CNC2)C(=O)NCC(F)F | 0.875 µM
NCc1cccc(NC(=O)[C@@H](NC(=O)OCc2ccccc2)C2CCN(Cc3ccncc3)CC2)c1 | > 99.5 µM
Cc1cc(C(=O)Nc2cccc(CN)c2)cc(NC(=O)OCc2ccccc2)c1Cl | 39 µM
O=C(O)CN(c1ccc(Cl)cc1)S(=O)(=O)c1ccc(Oc2ccccc2Cl)cc1 | > 99.5 µM
NCc1cccc(NC(=O)[C@H](NC(=O)OCc2ccccc2)C2CCN(Cc3ccccc3)CC2)c1 | > 99.5 µM
Cc1c(C(=O)Nc2cccc(-c3cncnc3O)c2)cc(C2CC2)n1C | > 25 µM
O=C(O)c1cc(Cl)ccc1NS(=O)(=O)c1ccc(N[C@H]2CCOC2)nc1 | > 99.5 µM
O=C(Nc1cc(Cl)cc(C(=O)Nc2cccc([C@H]3C[C@H]3C(=O)O)c2)c1)OCc1ccccc1 | 62.1 µM and 77.7 µM and 77.6 µM
CC(C)c1cc(-c2ccc3[nH]c(C(=O)O)cc3c2)cc(S(N)(=O)=O)c1 | > 99.5 µM
CCC1CN(C(=O)c2cc(Cl)ccc2NS(=O)(=O)c2ccc(Oc3ccccc3Cl)cc2)C1 | > 99.5 µM
NCc1cccc(NC(=O)[C@@H](NC(=O)OCc2ccccc2)c2c(F)cccc2F)c1 | > 99.5 µM
N#Cc1cc(Cl)cc(C(=O)Nc2cccc(-c3nnn[nH]3)c2)c1 | > 99.5 µM
O=C(Nc1ccc2c(c1)CNC2)c1cccc2ncccc12 | 3.4 µM
Clc1ccc2[nH]cc(Cc3ccc(-c4nn[nH]n4)cc3)c2c1 | > 99.5 µM
NCc1cccc(NC(=O)[C@@H](NC(=O)OCc2ccccc2)C2CCN(Cc3cccnc3)CC2)c1 | > 99.5 µM
CCNC(=O)c1ccnc(NC(=O)c2cc(C3CC3)n(C)c2C)c1 | > 25 µM

Structure (SMILES) | IC50
CC1(C)C(=O)N[C@H]2CCCN(C(=O)Nc3ccc4c(c3)CNC4)[C@H]21 | > 25 µM
Clc1cc(/C=C/c2cccc(-c3nn[nH]n3)c2)c2cn[nH]c2c1 | > 99.5 µM
O=C1Cc2c(cccc2C(=O)Nc2ccc(O[C@H]3CCOC3)nc2)N1 | > 25 µM
NCc1cccc(NC(=O)[C@H](NC(=O)CCc2ccccc2)c2ccc(OCc3ccccc3)cc2)c1 | 15.1 µM and 21.3 µM
NCc1cccc(NC(=O)c2cc(C(F)(F)F)nn2CC2CCC2)c1 | > 99.5 µM
Brc1cnn(C2CCN(Cc3csnn3)CC2)c1 | > 99.5 µM
NCc1cc(-c2ccncc2)cc([C@@H]2C[C@H]2c2cc(Cl)cc(NC(=O)OCc3ccccc3)c2)c1 | 12.3 µM
Cc1c(C(=O)Nc2cc(C(=O)N3CCOC[C@H](O)C3)ccn2)cc(C2CC2)n1C | > 25 µM
CCNC(=O)Nc1cc(Cl)cc(C(=O)O)c1 | > 99.5 µM
NCc1cccc(NC(=O)[C@@H](NC(=O)OCc2ccccc2)C(C2CCC2)C2CCC2)c1 | 66.3 µM and 82.1 µM
COC(=O)c1cc2scc(Br)c2[nH]1 | > 99.5 µM
Cn1c(C2CC2)cc(C(=O)Nc2cc(-c3cccnc3)ccn2)c1C1CC1 | > 25 µM
N#Cc1cccc(-c2nc3c(C(=O)Nc4ccc5c(c4)CNC5)cc(Cl)cc3[nH]2)c1 | 0.099 µM and 0.018 µM and 0.048 µM
O=C1Cc2c(cc(Br)cc2C(=O)Nc2ccc3c(c2)CNC3)N1 | 0.021 µM and 0.02 µM
Cc1cc(C=O)c(C)n1-c1cccc(C(=O)N2CCN(C)CC2)c1 | > 99.5 µM
NCc1cccc(NC(=O)[C@@H](NC(=O)OCc2ccccc2)c2cccc(F)c2F)c1 | > 99.5 µM
N[C@H]1CCCc2ccc(NC(=O)c3cc(Cl)cc4[nH]ncc34)cc21 | 2.97 µM
CSCCNC(=O)[C@H](Nc1ccc2c(c1)CNC2)c1cc(Cl)cc(C2CC2)c1 | 0.062 µM and 0.049 µM
O=C(Nc1ccc2c(c1)CNCC2)c1cc(Cl)cc2[nH]ncc12 | 0.504 µM
O=C(Nc1cc(Cl)cc(C(=O)Nc2cnc3n2CCNC3)c1)OCc1ccccc1 | > 99.5 µM
O=C(Nc1cc(Cl)cc(C(=O)Nc2ccc3c(c2)OCO3)c1)OCc1ccccc1 | > 99.5 µM
O=C(Nc1ccc2c(c1)CNC2)c1ccc2ncsc2n1 | 23.5 µM
Cc1c(C(=O)Nc2cc(-c3cccnc3)ccn2)cc(C2CCC2)n1C | > 25 µM
Cc1ccc(Oc2ncccc2C#N)c(-c2ccc3[nH]c(C(=O)O)cc3c2)c1 | > 99.5 µM
NCc1cccc(NC(=O)[C@H](NC(=O)OCc2ccccc2)C2CCN(C(=O)Cn3ccnc3)CC2)c1 | > 99.5 µM
CCNC(=O)[C@@H](NC(=O)OCc1ccccc1)c1ccc(OCc2ccccc2)cc1 | > 99.5 µM
